Reference: the supplement of paper PMC10307832

Key:
Assay in all cases: relative viability (nuclei count vs DMSO), 5 days (fraction); higher = more cells survive
[1] = system: ChaGo-K-1
Procedure, shortened: (§1)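 Relative viability divides the nuclei count in treated wells by that in vehicle wells. Lung cancer cell lines were seeded in 1536-well plates, dosed by pin tool the next day, and fixed and stained after 5 days in one step with final 0.05% Triton X-100, 1% formaldehyde and 1 ug/ml Hoechst. Dosing was a single drug or a fixed anchor-drug dose plus five library-drug doses (not always all listed) in √10 steps, and values are medians of duplicate plates imaged at 4×.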

[2] = system: HCC-78
Procedure, shortened: as §1

[3] = system: HCC-827
Procedure, shortened: as §1

[4] = system: LCLC-97TM1
Procedure, shortened: as §1

[5] = system: LK-2
Procedure, shortened: as §1

[6] = system: LOU-NH91
Procedure, shortened: as §1

[7] = system: NCI-H1355
Procedure, shortened: as §1

[8] = system: NCI-H1395
Procedure, shortened: as §1

[9] = system: NCI-H1755
Procedure, shortened: as §1

[10] = system: NCI-H1792
Procedure, shortened: as §1

[11] = system: NCI-H1993
Procedure, shortened: as §1

[12] = system: NCI-H2009
Procedure, shortened: as §1

[13] = system: NCI-H2085
Procedure, shortened: as §1

[14] = system: NCI-H2228
Procedure, shortened: as §1

[15] = system: NCI-H2342
Procedure, shortened: as §1

[16] = system: NCI-H2405
Procedure, shortened: as §1

[17] = system: NCI-H441
Procedure, shortened: as §1

[18] = system: NCI-H520
Procedure, shortened: as §1

[19] = system: NCI-H522
Procedure, shortened: as §1

[20] = system: NCI-H647
Procedure, shortened: as §1

[21] = system: NCI-H661
Procedure, shortened: as §1

[22] = system: PC-3 [JPC-3]
Procedure, shortened: as §1

[23] = system: SK-MES-1
Procedure, shortened: as §1

For `C=C1C(=O)O[C@@H](CCCCCCCC)[C@@H]1C(=O)O` [C-75] + O=C(c1cc(Cc2n[nH]c(=O)c3ccccc23)ccc1F)N1CCN(C(=O)C2CC2)CC1 [Olaparib] (partner 8 µM), which relative viability ([1]; first compound 0.08 µM) is on record?
Its relative viability is 0.401.

And the relative viability ([1]; first compound 0.253 µM)?
Its relative viability is 0.392.

What about the relative viability ([1]; first compound 0.8 µM) of the same compound?
The relative viability was 0.411.

And the relative viability ([1]; first compound 2.53 µM)?
The relative viability was 0.358.

What about the relative viability ([1]; first compound 8 µM) of the same compound?
Its relative viability is 0.401.

And the relative viability ([2]; first compound 0.08 µM)?
The relative viability was 0.838.

And the relative viability ([2]; first compound 0.253 µM)?
The relative viability was 1.08.

And the relative viability ([2]; first compound 0.8 µM)?
Its relative viability is 0.81.

What about the relative viability ([2]; first compound 8 µM) of the same compound?
Its relative viability is 0.823.

And the relative viability ([3]; first compound 0.253 µM)?
Its relative viability is 0.622.

And the relative viability ([3]; first compound 0.8 µM)?
The relative viability was 0.595.

What about the relative viability ([3]; first compound 8 µM) of the same compound?
The relative viability was 0.657.

What about the relative viability ([4]; first compound 0.08 µM) of the same compound?
The relative viability was 0.349.

And the relative viability ([4]; first compound 0.253 µM)?
Its relative viability is 0.402.

And the relative viability ([4]; first compound 0.8 µM)?
Its relative viability is 0.494.

And the relative viability ([4]; first compound 2.53 µM)?
Its relative viability is 0.338.

And the relative viability ([4]; first compound 8 µM)?
Its relative viability is 0.303.

What about the relative viability ([5]; first compound 0.08 µM) of the same compound?
Its relative viability is 0.674.

And the relative viability ([5]; first compound 0.253 µM)?
Its relative viability is 0.84.

And the relative viability ([5]; first compound 0.8 µM)?
Its relative viability is 0.64.

And the relative viability ([5]; first compound 2.53 µM)?
The relative viability was 0.596.

What about the relative viability ([5]; first compound 8 µM) of the same compound?
The relative viability was 0.502.

What about the relative viability ([6]; first compound 0.08 µM) of the same compound?
Its relative viability is 0.909.

What about the relative viability ([6]; first compound 0.253 µM) of the same compound?
Its relative viability is 0.786.

And the relative viability ([6]; first compound 0.8 µM)?
The relative viability was 0.878.

What about the relative viability ([6]; first compound 8 µM) of the same compound?
Its relative viability is 0.88.

What about the relative viability ([7]; first compound 0.08 µM) of the same compound?
Its relative viability is 0.709.

And the relative viability ([7]; first compound 0.253 µM)?
The relative viability was 0.767.

And the relative viability ([7]; first compound 0.8 µM)?
Its relative viability is 0.76.

And the relative viability ([7]; first compound 2.53 µM)?
The relative viability was 0.647.

And the relative viability ([7]; first compound 8 µM)?
Its relative viability is 0.753.

What about the relative viability ([8]; first compound 0.08 µM) of the same compound?
The relative viability was 0.423.

And the relative viability ([8]; first compound 0.253 µM)?
Its relative viability is 0.433.

And the relative viability ([8]; first compound 2.53 µM)?
Its relative viability is 0.465.

What about the relative viability ([8]; first compound 8 µM) of the same compound?
Its relative viability is 0.511.

What about the relative viability ([9]; first compound 0.08 µM) of the same compound?
The relative viability was 0.93.

And the relative viability ([9]; first compound 0.253 µM)?
Its relative viability is 0.872.

And the relative viability ([9]; first compound 0.8 µM)?
Its relative viability is 0.847.

What about the relative viability ([9]; first compound 2.53 µM) of the same compound?
The relative viability was 0.797.

What about the relative viability ([9]; first compound 8 µM) of the same compound?
Its relative viability is 0.846.

And the relative viability ([10]; first compound 0.08 µM)?
Its relative viability is 0.384.

What about the relative viability ([10]; first compound 0.253 µM) of the same compound?
The relative viability was 0.438.

And the relative viability ([10]; first compound 0.8 µM)?
The relative viability was 0.462.

And the relative viability ([10]; first compound 2.53 µM)?
The relative viability was 0.306.

What about the relative viability ([10]; first compound 8 µM) of the same compound?
Its relative viability is 0.431.

What about the relative viability ([11]; first compound 0.08 µM) of the same compound?
Its relative viability is 1.02.

And the relative viability ([11]; first compound 0.253 µM)?
Its relative viability is 1.34.

And the relative viability ([11]; first compound 0.8 µM)?
The relative viability was 0.676.

What about the relative viability ([11]; first compound 2.53 µM) of the same compound?
The relative viability was 1.05.

What about the relative viability ([11]; first compound 8 µM) of the same compound?
The relative viability was 1.17.

What about the relative viability ([12]; first compound 0.08 µM) of the same compound?
Its relative viability is 0.67.

What about the relative viability ([12]; first compound 0.253 µM) of the same compound?
Its relative viability is 0.654.

And the relative viability ([12]; first compound 0.8 µM)?
The relative viability was 0.623.

What about the relative viability ([12]; first compound 2.53 µM) of the same compound?
The relative viability was 0.488.

And the relative viability ([12]; first compound 8 µM)?
Its relative viability is 0.521.

What about the relative viability ([13]; first compound 0.08 µM) of the same compound?
Its relative viability is 0.766.

And the relative viability ([13]; first compound 0.253 µM)?
The relative viability was 0.61.

And the relative viability ([13]; first compound 0.8 µM)?
The relative viability was 0.753.

What about the relative viability ([13]; first compound 2.53 µM) of the same compound?
The relative viability was 0.681.

And the relative viability ([13]; first compound 8 µM)?
The relative viability was 0.725.

And the relative viability ([14]; first compound 0.08 µM)?
The relative viability was 0.709.

And the relative viability ([14]; first compound 0.253 µM)?
The relative viability was 0.897.

And the relative viability ([14]; first compound 0.8 µM)?
The relative viability was 0.494.

What about the relative viability ([14]; first compound 2.53 µM) of the same compound?
Its relative viability is 0.543.

And the relative viability ([14]; first compound 8 µM)?
Its relative viability is 0.414.

And the relative viability ([15]; first compound 0.08 µM)?
The relative viability was 0.503.

And the relative viability ([15]; first compound 0.253 µM)?
Its relative viability is 0.49.

And the relative viability ([15]; first compound 0.8 µM)?
Its relative viability is 0.374.

What about the relative viability ([15]; first compound 2.53 µM) of the same compound?
The relative viability was 0.38.

And the relative viability ([15]; first compound 8 µM)?
Its relative viability is 0.454.

And the relative viability ([16]; first compound 0.08 µM)?
Its relative viability is 0.808.

What about the relative viability ([16]; first compound 0.253 µM) of the same compound?
Its relative viability is 0.734.

What about the relative viability ([16]; first compound 0.8 µM) of the same compound?
The relative viability was 0.879.

And the relative viability ([16]; first compound 2.53 µM)?
The relative viability was 0.803.

And the relative viability ([16]; first compound 8 µM)?
Its relative viability is 0.852.

And the relative viability ([17]; first compound 0.08 µM)?
Its relative viability is 0.487.

What about the relative viability ([17]; first compound 0.253 µM) of the same compound?
Its relative viability is 0.391.

And the relative viability ([17]; first compound 0.8 µM)?
The relative viability was 0.528.

What about the relative viability ([17]; first compound 8 µM) of the same compound?
Its relative viability is 0.486.

What about the relative viability ([18]; first compound 0.08 µM) of the same compound?
Its relative viability is 0.343.

What about the relative viability ([18]; first compound 0.253 µM) of the same compound?
The relative viability was 0.358.

What about the relative viability ([18]; first compound 0.8 µM) of the same compound?
Its relative viability is 0.269.

What about the relative viability ([18]; first compound 2.53 µM) of the same compound?
The relative viability was 0.321.

What about the relative viability ([18]; first compound 8 µM) of the same compound?
Its relative viability is 0.257.

What about the relative viability ([19]; first compound 0.08 µM) of the same compound?
Its relative viability is 0.592.

What about the relative viability ([19]; first compound 0.253 µM) of the same compound?
Its relative viability is 0.733.

And the relative viability ([19]; first compound 0.8 µM)?
The relative viability was 0.662.

And the relative viability ([19]; first compound 2.53 µM)?
The relative viability was 0.66.

And the relative viability ([19]; first compound 8 µM)?
The relative viability was 0.547.

And the relative viability ([20]; first compound 0.08 µM)?
Its relative viability is 0.522.

What about the relative viability ([20]; first compound 0.253 µM) of the same compound?
The relative viability was 0.727.

What about the relative viability ([20]; first compound 0.8 µM) of the same compound?
The relative viability was 0.452.

What about the relative viability ([20]; first compound 2.53 µM) of the same compound?
The relative viability was 0.495.

And the relative viability ([20]; first compound 8 µM)?
Its relative viability is 0.354.

What about the relative viability ([21]; first compound 0.08 µM) of the same compound?
The relative viability was 0.725.

And the relative viability ([21]; first compound 0.253 µM)?
Its relative viability is 0.805.

What about the relative viability ([21]; first compound 0.8 µM) of the same compound?
Its relative viability is 0.693.

And the relative viability ([21]; first compound 2.53 µM)?
The relative viability was 0.66.

And the relative viability ([21]; first compound 8 µM)?
The relative viability was 0.699.

And the relative viability ([22]; first compound 0.08 µM)?
The relative viability was 1.13.

And the relative viability ([22]; first compound 0.253 µM)?
Its relative viability is 1.02.

What about the relative viability ([22]; first compound 0.8 µM) of the same compound?
The relative viability was 1.11.

What about the relative viability ([22]; first compound 2.53 µM) of the same compound?
Its relative viability is 1.03.

And the relative viability ([22]; first compound 8 µM)?
The relative viability was 1.2.

What about the relative viability ([23]; first compound 0.08 µM) of the same compound?
Its relative viability is 0.78.

What about the relative viability ([23]; first compound 0.253 µM) of the same compound?
Its relative viability is 0.772.

And the relative viability ([23]; first compound 0.8 µM)?
Its relative viability is 0.724.

What about the relative viability ([23]; first compound 2.53 µM) of the same compound?
The relative viability was 0.638.

What about the relative viability ([23]; first compound 8 µM) of the same compound?
The relative viability was 0.64.
